PubChem BioAssay (NCI)
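Five concentrations, 48 hours, 96-well plates. GI50 marks 50% less growth. At the TGI there is no net growth.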

What was measured:
Assay in all cases: inhibition of tumour cell growth, NCI panel, 48 h
A498 renal = tested on: A498 renal
A549 NSCLC = tested on: A549 NSCLC
ACHN renal = tested on: ACHN renal
BT-549 breast = tested on: BT-549 breast
CAKI-1 renal = tested on: CAKI-1 renal
CCRF-CEM leukemia = tested on: CCRF-CEM leukemia
COLO 205 colon = tested on: COLO 205 colon
DU-145 prostate = tested on: DU-145 prostate
EKVX NSCLC = tested on: EKVX NSCLC
HCC-2998 colon = tested on: HCC-2998 colon
HCT-15 colon = tested on: HCT-15 colon
HL-60(TB) leukemia = tested on: HL-60(TB) leukemia
HOP-62 NSCLC = tested on: HOP-62 NSCLC
HOP-92 NSCLC = tested on: HOP-92 NSCLC
HS 578T breast = tested on: HS 578T breast
HT29 colon = tested on: HT29 colon
IGROV1 ovarian = tested on: IGROV1 ovarian
KM12 colon = tested on: KM12 colon
LOX IMVI melanoma = tested on: LOX IMVI melanoma
MALME-3M melanoma = tested on: MALME-3M melanoma
MCF7 breast = tested on: MCF7 breast
MDA-MB-231 breast = tested on: MDA-MB-231 breast
MDA-MB-435 = tested on: MDA-MB-435
MOLT-4 leukemia = tested on: MOLT-4 leukemia
NCI-H226 lung = tested on: NCI-H226 lung
NCI-H23 lung = tested on: NCI-H23 lung
NCI-H460 lung = tested on: NCI-H460 lung
NCI-H522 lung = tested on: NCI-H522 lung
NCI/ADR-RES ovarian = tested on: NCI/ADR-RES ovarian
OVCAR-3 ovarian = tested on: OVCAR-3 ovarian
OVCAR-4 ovarian = tested on: OVCAR-4 ovarian
OVCAR-5 ovarian = tested on: OVCAR-5 ovarian
OVCAR-8 ovarian = tested on: OVCAR-8 ovarian
PC-3 prostate = tested on: PC-3 prostate
RPMI-8226 leukemia = tested on: RPMI-8226 leukemia
RXF 393 renal = tested on: RXF 393 renal
SF-268 CNS = tested on: SF-268 CNS
SF-295 CNS = tested on: SF-295 CNS
SF-539 CNS = tested on: SF-539 CNS
SK-MEL-2 melanoma = tested on: SK-MEL-2 melanoma
SK-MEL-28 melanoma = tested on: SK-MEL-28 melanoma
SK-MEL-5 melanoma = tested on: SK-MEL-5 melanoma
SK-OV-3 ovarian = tested on: SK-OV-3 ovarian
SN12C renal = tested on: SN12C renal
SNB-19 CNS = tested on: SNB-19 CNS
SNB-75 CNS = tested on: SNB-75 CNS
SR leukemia = tested on: SR leukemia
SW-620 colon = tested on: SW-620 colon
T-47D breast = tested on: T-47D breast
TK-10 renal = tested on: TK-10 renal
U251 CNS = tested on: U251 CNS
UACC-62 melanoma = tested on: UACC-62 melanoma
UO-31 renal = tested on: UO-31 renal

SMILES: CN1CCN(c2ccc(-c3ccc4ncc(C#N)c(Nc5ccc(F)c(Cl)c5)c4c3)cc2)CC1
- GI50 (A498 renal): 2.43 µM
- TGI (A498 renal): 12.4 µM
- GI50 (A549 NSCLC): 2.63 µM
- TGI (A549 NSCLC): 26.6 µM
- GI50 (ACHN renal): 0.491 µM
- TGI (ACHN renal): 2.72 µM
- GI50 (BT-549 breast): 3.77 µM
- TGI (BT-549 breast): 17.9 µM
- GI50 (CAKI-1 renal): 1.01 µM
- TGI (CAKI-1 renal): 3.01 µM
- GI50 (CCRF-CEM leukemia): 2.2 µM
- TGI (CCRF-CEM leukemia): 6.52 µM
- GI50 (COLO 205 colon): 1.92 µM
- TGI (COLO 205 colon): 4.99 µM
- GI50 (DU-145 prostate): 0.872 µM
- TGI (DU-145 prostate): 4.11 µM
- GI50 (EKVX NSCLC): 0.838 µM
- TGI (EKVX NSCLC): 41.2 µM
- GI50 (HCC-2998 colon): 3.26 µM
- TGI (HCC-2998 colon): 15.8 µM
- GI50 (HCT-15 colon): 1.05 µM
- TGI (HCT-15 colon): 3.62 µM
- GI50 (HL-60(TB) leukemia): 1.68 µM
- TGI (HL-60(TB) leukemia): 4.45 µM
- GI50 (HOP-62 NSCLC): 2.22 µM
- TGI (HOP-62 NSCLC): 7.55 µM
- GI50 (HOP-92 NSCLC): 3.47 µM
- TGI (HOP-92 NSCLC): 28.4 µM
- GI50 (HS 578T breast): 2.55 µM
- TGI (HS 578T breast): 9.88 µM
- GI50 (HT29 colon): 2.33 µM
- TGI (HT29 colon): 8.32 µM
- GI50 (IGROV1 ovarian): 0.321 µM
- TGI (IGROV1 ovarian): 10.5 µM
- GI50 (KM12 colon): 4.47 µM
- TGI (KM12 colon): 18.4 µM
- GI50 (LOX IMVI melanoma): 2.78 µM
- TGI (LOX IMVI melanoma): 11.5 µM
- GI50 (MALME-3M melanoma): 1.74 µM
- TGI (MALME-3M melanoma): 4.04 µM
- GI50 (MCF7 breast): 3.18 µM
- TGI (MCF7 breast): 14.9 µM
- GI50 (MDA-MB-231 breast): 6 µM
- TGI (MDA-MB-231 breast): 28.5 µM
- GI50 (MDA-MB-435): 1.89 µM
- TGI (MDA-MB-435): 3.68 µM
- GI50 (MOLT-4 leukemia): 1.97 µM
- TGI (MOLT-4 leukemia): 5.53 µM
- GI50 (NCI-H226 lung): 10.2 µM
- TGI (NCI-H226 lung): 34.3 µM
- GI50 (NCI-H23 lung): 10.1 µM
- TGI (NCI-H23 lung): 41.5 µM
- GI50 (NCI-H460 lung): 2.05 µM
- TGI (NCI-H460 lung): 6.67 µM
- GI50 (NCI-H522 lung): 1.15 µM
- TGI (NCI-H522 lung): 4.02 µM
- GI50 (NCI/ADR-RES ovarian): 4.57 µM
- TGI (NCI/ADR-RES ovarian): 27.9 µM
- GI50 (OVCAR-3 ovarian): 1.72 µM
- TGI (OVCAR-3 ovarian): 6.25 µM
- GI50 (OVCAR-4 ovarian): 3.18 µM
- TGI (OVCAR-4 ovarian): 25.6 µM
- GI50 (OVCAR-5 ovarian): 4.74 µM
- TGI (OVCAR-5 ovarian): 25.5 µM
- GI50 (OVCAR-8 ovarian): 2.74 µM
- TGI (OVCAR-8 ovarian): 14.5 µM
- GI50 (PC-3 prostate): 2.08 µM
- TGI (PC-3 prostate): 7.92 µM
- GI50 (RPMI-8226 leukemia): 1.92 µM
- TGI (RPMI-8226 leukemia): 5.5 µM
- GI50 (RXF 393 renal): 1.62 µM
- TGI (RXF 393 renal): 5.54 µM
- GI50 (SF-268 CNS): 2.87 µM
- TGI (SF-268 CNS): 15.9 µM
- GI50 (SF-295 CNS): 1.82 µM
- TGI (SF-295 CNS): 3.61 µM
- GI50 (SF-539 CNS): 1.86 µM
- TGI (SF-539 CNS): 4.07 µM
- GI50 (SK-MEL-2 melanoma): 2.3 µM
- TGI (SK-MEL-2 melanoma): 6.72 µM
- GI50 (SK-MEL-28 melanoma): 1.79 µM
- TGI (SK-MEL-28 melanoma): 3.66 µM
- GI50 (SK-MEL-5 melanoma): 2.19 µM
- TGI (SK-MEL-5 melanoma): 5.43 µM
- GI50 (SK-OV-3 ovarian): 2.9 µM
- TGI (SK-OV-3 ovarian): 15.1 µM
- GI50 (SN12C renal): 3.04 µM
- TGI (SN12C renal): 19.6 µM
- GI50 (SNB-19 CNS): 3.36 µM
- TGI (SNB-19 CNS): 19.2 µM
- GI50 (SNB-75 CNS): 2.33 µM
- TGI (SNB-75 CNS): 15.9 µM
- GI50 (SR leukemia): 2.01 µM
- TGI (SR leukemia): 6.82 µM
- GI50 (SW-620 colon): 2.81 µM
- TGI (SW-620 colon): 14.5 µM
- GI50 (T-47D breast): 1.93 µM
- TGI (T-47D breast): 7.15 µM
- GI50 (TK-10 renal): 0.484 µM
- TGI (TK-10 renal): 18.8 µM
- GI50 (U251 CNS): 2.3 µM
- TGI (U251 CNS): 7.47 µM
- GI50 (UACC-62 melanoma): 1.87 µM
- TGI (UACC-62 melanoma): 3.75 µM
- GI50 (UO-31 renal): 0.895 µM
- TGI (UO-31 renal): 6.13 µM
